The values below come from PubChem BioAssay (NCI).

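Exposure lasted 48 hours, with cells grown in 96-well plates and compounds tested at five concentrations. The concentration for full growth arrest is given as TGI.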 Some results are limits rather than exact numbers.

Test systems include EKVX NSCLC; HL-60(TB) leukemia; SK-MEL-2 melanoma; NCI-H522 lung; CAKI-1 renal; HS 578T breast; OVCAR-4 ovarian; MDA-MB-231 breast; MDA-N; ACHN renal.
What all share (assay): DTP human tumour cell line panel, 48 h

As usually defined, the TGI is the concentration giving total growth inhibition. Read a low TGI as more potent growth arrest. As to `COc1cccc(/C=N/n2c(Cc3ccc(Cl)cc3)n[nH]c2=O)c1`, the TGI is greater than 84 µM in the test on EKVX NSCLC; greater than 100 µM in the test with HL-60(TB) leukemia; 58.6 µM with SK-MEL-2 melanoma; 50.6 µM with NCI-H522 lung; greater than 81.9 µM in the test with CAKI-1 renal; 72.7 µM in the test with HS 578T breast. For the same compound, the TGI with OVCAR-4 ovarian was greater than 100 µM; in the test with MDA-MB-231 breast it was 48.2 µM; in the test with MDA-N it was greater than 100 µM; with ACHN renal, 67.3 µM.

On to `Cc1nc2ccccc2cc1C[N+]12CN3CN(CN(C3)C1)C2`, for which the TGI with EKVX NSCLC was 50 µM; in the test with SK-MEL-2 melanoma it was 39.8 µM; in the test on NCI-H522 lung, 38.2 µM; in the test on CAKI-1 renal, 59.8 µM; in the test with HS 578T breast, greater than 100 µM; in the test with OVCAR-4 ovarian it was 64.9 µM. The TGI with MDA-MB-231 breast worked out at 43.1 µM; with MDA-N, 65.6 µM; with ACHN renal, 38.5 µM.

Turning to `CN1CCN(c2c(O)c3c(c(O)c2Cl)C(=O)C=CC3=O)CC1`, the TGI in the test on EKVX NSCLC came out at 3.04 µM; in the test on HL-60(TB) leukemia, 0.332 µM; with SK-MEL-2 melanoma it was 2.64 µM; in the test with NCI-H522 lung, 0.765 µM; in the test on CAKI-1 renal it was 1.56 µM; with HS 578T breast, 5.45 µM. The TGI with OVCAR-4 ovarian turned out to be 1.37 µM; in the test with MDA-MB-231 breast, 1.06 µM; in the test on MDA-N it was 1.2 µM; in the test with ACHN renal, 0.806 µM.

`COc1cnnc2c(C)c(-c3ccccc3)nn12`: the TGI with EKVX NSCLC, in the test on HL-60(TB) leukemia, with SK-MEL-2 melanoma, in the test on NCI-H522 lung, with CAKI-1 renal and in the test on HS 578T breast was greater than 100 µM in each case. In addition, the TGI in the test with OVCAR-4 ovarian, with MDA-MB-231 breast, with MDA-N and in the test with ACHN renal was greater than 100 µM each time.

For `Cc1nc(N)nc(N)c1N1CCN(Cc2ccccc2)CC1`, the TGI in the test on EKVX NSCLC is greater than 100 µM; with HL-60(TB) leukemia it was greater than 100 µM; in the test with SK-MEL-2 melanoma, greater than 100 µM; in the test on NCI-H522 lung, greater than 93.5 µM; with CAKI-1 renal it was greater than 100 µM; in the test with HS 578T breast, greater than 100 µM. Further, the TGI in the test with OVCAR-4 ovarian, with MDA-MB-231 breast, in the test on MDA-N and with ACHN renal was greater than 100 µM throughout.

As to `CCCC1C(C#N)(C#N)C(C#N)=C(N)C1(C)C(C)=O` (stereo not drawn), the TGI with EKVX NSCLC is greater than 100 µM; with HL-60(TB) leukemia it was greater than 100 µM; in the test on SK-MEL-2 melanoma, greater than 100 µM; in the test on NCI-H522 lung, greater than 100 µM; in the test on CAKI-1 renal it was 21.6 µM; in the test with HS 578T breast it was greater than 100 µM. In addition, the TGI in the test with MDA-MB-231 breast, in the test with MDA-N and in the test on ACHN renal was greater than 100 µM throughout.

`Nc1ccc(-c2nc3cc(F)ccc3s2)cc1`: the TGI in the test on EKVX NSCLC is greater than 46.6 µM; with HL-60(TB) leukemia, greater than 100 µM; in the test on SK-MEL-2 melanoma it was greater than 100 µM; with NCI-H522 lung, greater than 100 µM; in the test with CAKI-1 renal, greater than 100 µM; with HS 578T breast, greater than 100 µM. Further, the TGI in the test on OVCAR-4 ovarian is greater than 100 µM; in the test on MDA-MB-231 breast, 81.5 µM; in the test with MDA-N, greater than 100 µM; in the test with ACHN renal, greater than 61.7 µM.

As to `CC(CN(C)C)C(=O)/C=C/c1ccc(Cl)c(Cl)c1` (stereo not drawn), the TGI with EKVX NSCLC stood at 3.11 µM; with HL-60(TB) leukemia it was 4.46 µM; in the test with SK-MEL-2 melanoma, 4.19 µM; in the test on NCI-H522 lung, 3.24 µM; in the test on CAKI-1 renal, 4.42 µM; with HS 578T breast, 29 µM. For the same compound, the TGI worked out at 19 µM in the test with OVCAR-4 ovarian, 3.29 µM with MDA-MB-231 breast, 6.03 µM in the test on MDA-N and 3.92 µM in the test on ACHN renal.

With `COc1cc([C@@H]2c3cc4c(cc3[C@@H](Nc3ccc(NC(=O)c5cc(NC(=O)c6cc([N+](=O)[O-])cn6C)cn5C)cc3)[C@H]3COC(=O)[C@H]23)OCO4)cc(OC)c1O`, the TGI in the test with EKVX NSCLC was greater than 64.2 µM; in the test on HL-60(TB) leukemia it was 11.3 µM; in the test with SK-MEL-2 melanoma, greater than 100 µM; with NCI-H522 lung it was greater than 100 µM; with CAKI-1 renal it was greater than 28.5 µM; in the test on HS 578T breast, greater than 100 µM. Further, the TGI with OVCAR-4 ovarian is greater than 100 µM; in the test on MDA-MB-231 breast it was greater than 64 µM; in the test with MDA-N, greater than 100 µM; in the test on ACHN renal, 12.1 µM.

`O=C1C(CN2CCCC2)CCCC1CN1CCCC1` (stereo not drawn): the concentration for total growth inhibition (TGI) amounted to 13.7 µM in the test on EKVX NSCLC; 0.445 µM with HL-60(TB) leukemia; 37.4 µM in the test with SK-MEL-2 melanoma; 0.29 µM in the test on NCI-H522 lung; 3.11 µM in the test on CAKI-1 renal; 72.6 µM in the test with HS 578T breast. In addition, the TGI in the test on OVCAR-4 ovarian amounted to 20.3 µM; in the test with MDA-MB-231 breast, 31.1 µM; with MDA-N, 19.2 µM; in the test with ACHN renal it was 3.42 µM.

For the compound `CC(C)C(/C=C/c1ccccc1)=N\NC(=S)NN`, the TGI in the test on EKVX NSCLC was greater than 100 µM; in the test on HL-60(TB) leukemia, greater than 100 µM; in the test on SK-MEL-2 melanoma, greater than 100 µM; in the test with NCI-H522 lung, greater than 89.3 µM; in the test on CAKI-1 renal it was greater than 100 µM; in the test with HS 578T breast, greater than 100 µM. The TGI in the test on OVCAR-4 ovarian is greater than 100 µM; with MDA-MB-231 breast, greater than 100 µM; in the test with MDA-N it was greater than 31.6 µM; with ACHN renal, greater than 100 µM.

`COc1cc(C2c3cc4c(cc3OC(N3CCOCC3)C2C)OCO4)cc(OC)c1OC(C)=O` (stereo not drawn): the TGI was greater than 100 µM with EKVX NSCLC; greater than 59 µM with HL-60(TB) leukemia; 41.1 µM in the test on SK-MEL-2 melanoma; 33.2 µM in the test on NCI-H522 lung; greater than 100 µM in the test on CAKI-1 renal; 25.7 µM with HS 578T breast. Further, the TGI in the test with OVCAR-4 ovarian is greater than 100 µM; in the test with MDA-MB-231 breast, 99.2 µM; in the test with MDA-N, 4.94 µM; in the test with ACHN renal it was greater than 100 µM.

For `O=C1CC(Cl)c2c(Cl)sc(Cl)c21` (stereo not drawn), the TGI with EKVX NSCLC is 16.4 µM; with HL-60(TB) leukemia, 3.23 µM; with SK-MEL-2 melanoma it was greater than 25.5 µM; with NCI-H522 lung, 4.51 µM; in the test with CAKI-1 renal, 3.18 µM; with HS 578T breast, greater than 27.9 µM. For the same compound, the TGI was 10.3 µM in the test on OVCAR-4 ovarian, greater than 25.7 µM in the test on MDA-MB-231 breast, 5.94 µM in the test on MDA-N and 3.45 µM in the test on ACHN renal.

Regarding `Cc1ccc(Nc2nc(NS(=O)(=O)c3cc(C)c(Cl)cc3S)n[nH]2)cc1`, the TGI in the test on EKVX NSCLC, in the test on HL-60(TB) leukemia, in the test with SK-MEL-2 melanoma, with NCI-H522 lung, in the test with CAKI-1 renal and in the test on HS 578T breast was greater than 100 µM each time. Further, the TGI in the test on OVCAR-4 ovarian, in the test on MDA-MB-231 breast, with MDA-N and in the test with ACHN renal was greater than 100 µM each time.
